{"source": "paper PMC3111459", "about": "(Breast cancer research and treatment, 2011)", "key": {"[1]": {"settings": "human, in vivo"}, "OATP1B3": {"system": "OATP1B3", "settings": "in vitro; cited from earlier work"}, "OAT2": {"system": "OAT2", "settings": "in vitro; cited from earlier work"}, "clinical [2]": {"assay": "clinical", "settings": "human, in vivo"}, "clinical [3]": {"assay": "clinical", "settings": "human, in vivo", "remark": "listed apart in the source"}}, "data": [{"compound": "CC(=O)O[C@@]12CO[C@@H]1C[C@H](O)[C@@]1(C)C(=O)[C@H](O)C3=C(C)[C@@H](OC(=O)[C@H](O)[C@@H](NC(=O)OC(C)(C)C)c4ccccc4)C[C@@](O)([C@@H](OC(=O)c4ccccc4)[C@H]21)C3(C)C", "note": "[Docetaxel]", "values": [{"measurement": "CL", "setting": "[1]", "value": "18.1 ± 4.35(7) l/h"}, {"measurement": "T1/2", "setting": "[1]", "value": "60.2 ± 31.0(7) h"}, {"measurement": "substrate for liver OATP1B3", "setting": "OATP1B3", "value": "substrates for liver OATP1B3"}, {"measurement": "substrate for liver OAT2", "setting": "OAT2", "value": "substrate for liver OAT2"}, {"measurement": "clearance", "setting": "clinical [2]; CL", "value": 272, "unit": "mL/min"}, {"measurement": "half-life", "setting": "clinical [2]; T1/2", "value": "45.1 ± 20", "unit": "h"}]}, {"compound": "Cc1ccc(NC(=O)c2ccc(CN3CCN(C)CC3)cc2)cc1Nc1nccc(-c2cccnc2)n1", "note": "[Imatinib]", "values": [{"measurement": "Tmax", "setting": "clinical [3]", "value": 5, "unit": "h"}]}]}
